According to article PMC7155171, “Probing the Open Global Health Chemical Diversity Library for Multistage-Active Starting Points for Next-Generation Antimalarials” (ACS Infectious Diseases, 2020):
Where two headings read alike, the source gives them in different places.

Experiments:
[1] = target: recombinant firefly luciferase (Photinus pyralis, UniProt P08659); assay: biochemical; conditions: read-out: rLuc IC50
[2] = test system: P. berghei liver stage (PbLuc); assay: P. berghei luciferase liver stage (PbLuc) assay in HepG2-A16-CD81 hepatocytes; format: cell-based, Plasmodium berghei; conditions: Plasmodium berghei; for Emax: 12pt dose response, maximum inhibition
[3] = test system: HepG2-A16-CD81 hepatocytes; assay: HepG2 cytotoxicity screening (CellTiter-Glo); conditions: for IC50: HepG2-A16-CD81, read-out: HepG2 tox IC50; for HepG2 cytotoxicity 12pt dose response: Maximum inhibition (%): 12pt dose response
[4] = HepG2 cytotoxicity screening (CellTiter-Glo); conditions: human, uninfected HepG2-A16-CD81 (EGFP) hepatocytes
[5] = HepG2-A16-CD81, 48 h, 48 h liver stage, HepG2-A16-CD81, read-out: Pbluc (EEF) IC50
[6] = HepG2-A16-CD81, 12pt dose response, read-out: PbLuc 12pt dose response: IC50

Chain of recombinant firefly luciferase (P08659 whole entry): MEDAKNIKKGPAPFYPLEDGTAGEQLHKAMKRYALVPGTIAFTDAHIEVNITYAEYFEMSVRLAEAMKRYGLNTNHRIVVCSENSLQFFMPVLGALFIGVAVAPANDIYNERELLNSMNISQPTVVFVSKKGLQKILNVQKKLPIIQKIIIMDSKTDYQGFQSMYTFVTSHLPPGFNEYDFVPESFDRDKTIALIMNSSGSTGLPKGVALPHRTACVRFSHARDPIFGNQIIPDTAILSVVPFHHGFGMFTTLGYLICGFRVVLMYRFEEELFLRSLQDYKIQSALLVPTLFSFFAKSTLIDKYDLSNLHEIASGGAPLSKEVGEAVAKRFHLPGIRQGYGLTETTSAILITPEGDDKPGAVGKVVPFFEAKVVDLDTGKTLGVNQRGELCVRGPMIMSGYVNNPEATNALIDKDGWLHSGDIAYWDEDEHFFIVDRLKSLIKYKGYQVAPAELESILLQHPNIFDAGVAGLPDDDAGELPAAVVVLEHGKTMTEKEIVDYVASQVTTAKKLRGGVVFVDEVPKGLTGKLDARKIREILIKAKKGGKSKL

Structure (SMILES)	IC50 [1] [µM]	IC50 [2, 5] [µM]	IC50 [3] [µM]	IC50 [2, 6] [µM]	Emax ([2]; HepG2-A16-CD81, 48 h) [%]	IC50 [4] [µM]	inhibition at 2 µM [4] [%]	HepG2 cytotoxicity 12pt dose response: Maximum inhibition (%) [3] [%]
CCS(=O)(=O)N1CCc2ccc(NC(=O)Nc3cccc(C)c3)cc21 [DDD01025922]	> 50	3.66	16.6					
CCS(=O)(=O)N1CCc2ccc(NC(=O)Nc3cccc(F)c3)cc21 [DDD01025926]	> 25	9.31	17.8					
Cc1cnc(NC(=O)c2csc(NC3CCCC3)n2)s1 [DDD01026924]	24.8	8.33	> 25					
CCCc1cc(=O)[nH]c(-n2nc(C3CC3)cc2N)n1 [DDD01027468]	> 25	4.69	20.5					
CC(C)c1cc(=O)[nH]c(-n2nc(C3CC3)cc2N)n1 [DDD01027469]	> 25	1.61	18.9					
Cc1cc(C(=O)N2CCN(c3nc4c(C(C)C)cccc4s3)CC2)no1 [DDD01027513]	> 50	0.822	> 25					
Cc1cc(C(=O)N2CCN(c3nc4c(C(C)C)cccc4s3)CC2)on1 [DDD01027654]	> 50	4	> 25					
Cc1[nH]/c(=N\C(=O)c2csc(NC3CCCC3)n2)sc1C [DDD01035522]	44.4	0.832	11					
CCS(=O)(=O)N1CCc2ccc(NC(=O)Nc3cccc(SC)c3)cc21 [DDD01035781]	> 25	1.38	3.39					
Fc1ccc(CN2CCCC(c3cc4ncccc4[nH]3)C2)cc1 (stereo not shown) [DDD01057419]	> 25	8.45	> 25					
COc1cc(C)c(CN2CCc3nc4ccsc4c(=O)n3CC2)cc1C [DDD01059934]	> 25	8.88	> 25					
O=c1c2sccc2nc2n1CCN(Cc1ccccc1C(F)(F)F)CC2 [DDD01059968]	> 25	6.77	> 25					
COc1ccc(-c2ccc(C3CNCCO3)nc2)cc1 (stereo not shown) [DDD01061023]	0.03	< 0.000141	> 50					
CCc1nc(CN2CCCN(c3ncnc4ccsc34)CC2)no1 [DDD01071387]		9.87	> 50					
CCc1nc(CN2CCCN(c3ncnc4ccccc34)CC2)no1 [DDD01080636]	> 50	0.691	1.85					
COc1ccc2cc(C3CN(C(=O)CCNC(C)=O)CCO3)ccc2c1 (stereo not shown) [DDD01248593]	9.9	0.333	> 25					
CNC(=O)CCC(=O)N1CCOC(c2ccc3cc(OC)ccc3c2)C1 (stereo not shown) [DDD01251007]	23.5	0.000954	> 25					
COc1ccc2cc(C3CN(C(=O)N(C)C)CCO3)ccc2c1 (stereo not shown) [DDD01257372]	3.45	< 0.000141	> 25					
NC(=O)C1CN(C(=O)Nc2cc(Cl)cc(Cl)c2)CCO1 (stereo not shown) [UCSD-0586016]				1.39	102	16.9	11.4	92.5
CCc1nc(CN2CCCN(c3ncnc4ccsc34)CC2)no1 [UCSD-0620395]				9.87		> 50	12.5	49.7
Cc1ccc(CN2CCCC3(CCN(Cc4ccoc4)CC3)C2)cc1 [UCSD-0791105]				7.88	99.9	43.8	-2.23	55.5
CN(CCc1ccncc1)CCc1nccs1 [UCSD-0805829]				0.495	87.7	> 50	2.05	-1.84

Structure (SMILES)	IC50 [1] [µM]	IC50 [2, 5] [µM]	IC50 [3] [µM]	IC50 [2, 6] [µM]	Emax ([2]; HepG2-A16-CD81, 48 h) [%]	IC50 [4] [µM]	inhibition at 2 µM [4] [%]	HepG2 cytotoxicity 12pt dose response: Maximum inhibition (%) [3] [%]
CCn1ccnc1CNCC(c1ccc(C)s1)N1CCOCC1 (stereo not shown) [UCSD-0810145]				38.3	88.9	46.2	16.3	56.3
CC(C)CC(=O)NCc1cccc(OCCN(C)C2CCOCC2)c1 [UCSD-0810838]				> 50	39.1	> 50	38.8	7.9
Cc1n[nH]cc1CNC1CCN(c2cccc(C(F)(F)F)c2)CC1 [UCSD-0814169]				9.3	88.9	> 50	-9.01	7.17
CCOc1ccccc1CNC(=O)NCC(c1cnn(C)c1)N(C)C (stereo not shown) [UCSD-0816742]				> 50	36.1	> 50	13.9	-5.65
Cc1cccc(NCc2ncc(C(C)(C)C)o2)c1 [UCSD-0816980]				16.6	73.4	> 50	14.1	11.5
CCc1ccccc1OC1CN(C(=O)c2ccnc(OC)c2)C1 [UCSD-0824378]				16.6	80.5	> 50	8.15	46.8
O=C(O)c1cccnc1N1CCN(Cc2ccc(F)cc2)C(CCO)C1 (stereo not shown) [UCSD-0826099]				> 50	46.3	> 50	9.42	4.04
Cc1ccc2cc(C3(O)CCN(C(=O)CSC(C)C)CC3)ccc2n1 [UCSD-0827397]				16.9		> 50	33.3	39.9
COc1cccc(CN2CCC(CO)(Cc3ccc(Cl)cc3)CC2)c1O [UCSD-0828601]				4.59	95	12.2	2.59	82.8
C[C@H](c1ccc(F)cc1)n1c(C2CCN(C)CC2)n[nH]c1=O [UCSD-0830237]				3.28	86.3	> 50	3.06	8.15
O=C(O)CSc1nnc(-c2cn[nH]c2)n1-c1ccccc1C(F)(F)F [UCSD-0830442]				5.54		> 50	6.23	4.76
COc1ccc(F)c(CN2CCCC(O)(CNCC(C)(C)C)C2=O)c1 (stereo not shown) [UCSD-0830878]				44.7	86.4	> 50	5.34	-11.6
CN1CCCC(CCC(=O)N2CCc3sc(C(=O)N(C)C)cc3C2)C1 (stereo not shown) [UCSD-0833754]				> 50	38.7	> 50	-1.19	3.22
NC(=O)CCn1cc(CNCc2csc(N)n2)c2ccccc21 [UCSD-0835992]				> 50	17.4	> 50	9.68	10.2
COc1ccccc1C1CCN(c2ccc3cc[nH]c3n2)CC1 [UCSD-0836069]				3.52	93.5	31.8	5.11	60.6
Cc1n[nH]c(CN2CCN(c3ncnc4scc(C)c34)CC2)c1Cl [UCSD-0836325]				4.49	96	> 16.6	27.1	66.1
COc1ccc(OCCN2CCC(N3CCNC3=O)CC2)cc1 [UCSD-0840477]				21.2	62.9	> 50	38.5	42.1
Cc1cccc(NC(=O)c2[nH]nc(C(C)C)c2Br)n1 [UCSD-0842406]				0.0268	101	> 50	17.4	40.5
Cc1ncsc1C(=O)NC1CCN(Cc2ccc(C(F)(F)F)cc2)CC1 [UCSD-0842554]				14.2	87.4	> 50	9.14	41.9
CC(=O)Nc1nc(C(=O)N2CCCC(n3cncn3)C2)cs1 (stereo not shown) [UCSD-0843277]				21.5	81.2	> 50	-7.07	-5.65
CC(C)(C)c1nc(CN2CCCC(Cn3cncn3)C2)cs1 (stereo not shown) [UCSD-0846727]				> 50	24.9	> 50	5.83	-16.6
